Measurements as given in paper PMC9201908, “Expansion of the Strigolactone Profluorescent Probes Repertory: The Right Probe for the Right Application” (Frontiers in Plant Science, 2022).
“And” between values parts separate entries of the source, which are not always exact repeats. Identical values can stand only once. Counter-ions that a name gives are not always drawn. Like-named read-outs stand apart in the source and are kept apart here.

Legend:
pea = experiment: Bioactivity of D14 inhibitors in pea; details: in vivo
[1] = test system: rms1-10 pea mutant plants; details: cited from earlier work; for Length of bud at node 3 /branch: direct application, rms1-10, tested previously, ref De saint Germain et al 2016
ShD14 = test system: ShD14; set-up: method as in Xu et al., 2018; details: ref Xu et al., 2018; cited from earlier work
Ppccd8 mutant plants [2] = experiment: Physcomitrium patens bioassay, number of filaments in the dark; assay type: in vivo; details: 1 μM; for Activity on filament number, one bioassay replication: Supplementary Figure 3
Protocol: Assays on Physcomitrium patens were performed on plants grown in 24-well plates, starting from very small pieces of moss tissues as described by Guillory and Bonhomme ([2021]). As for pea rms1, the Ppccd8 SL synthesis mutant was used for assays, since the effect of the compounds was better seen in this mutant vs. wild type (WT; Lopez-Obando et al., [2021]). For each treatment, 24 plants were grown in PpNO3 medium [minimal medium described by Ashton et al., [1979]], dispatched in three different plates. Plants were grown for 2 weeks under control conditions, then treated with fluorophores or probes (all compounds used at 1 μM), before being placed vertically in the dark for 10 days. A single picture of each well was taken under an Axio Zoom microscope (Zeiss) with a dedicated program. Filaments were counted using ImageJ software (http://imagej.nih.gov/ij/) as described by Guillory and Bonhomme ([2021]). Twenty-four plants were tested in each treatment.

Ppccd8 mutant plants [3] = details: WT and Ppccd8; ref Hoffmann et al., 2014; Lopez-Obando et al., 2021; cited from earlier work
[4] = test system: Arabidopsis SL-deficient mutant max3-11; experiment: Hydroponic assay on Arabidopsis, rosette branches; assay type: in vivo, Arabidopsis thaliana; details: max3-11, hydroponic, 0.5 and 3 μM
Protocol: The hydroponic assay was adapted from the study by Cornet et al. ([2021]). Seeds were surface-sterilized for 8 min in a solution of ethanol (95%) and hypochlorite solution (10%; Bayrol, Mundolsheim, France) and were rinsed two times with ethanol (100%). Each seed was sown on top of a cut 0.5 ml Eppendorf tube filled with agar medium containing 0.65% of agar and 10% of nutritive solution of 5 mM NO3. Tubes were soaked in water and stored in the dark at 4°C for 2 days. Twelve plants per pipette tip box (13 × 9 × 7 cm) were grown and supplied with nutrient solution as in the study by Boyer et al. ([2014]) at a concentration of 5 ml/L (750 ml of solution per box). Every week, the nutrient solution was renewed and every 10 days one time, a fresh batch of treatment was added to the solution. The first treatment occurred at day 27 after sowing when plants started to bolt. The number of rosette branches was counted at day 42.

[5] = test system: rms1-10 pea mutant plants; experiment: Pea shoot-branching assay by direct application on the bud, rms1-10; assay type: in vivo, Pisum sativum; details: for Length of bud at node 3 /branch: direct application, rms1-10, 10 days after treatment; for Bioactivity on shoot branching inhibition (bud development): result in words
Protocol: (§1) Pea (Pisum sativum) branching mutant plants used in this study were described previously (Rameau et al., [1997]). The SL biosynthesis rms1-10 (M3T-884) and SL response rms3-4 (M2T-30) mutants were obtained from the dwarf cv. Térèse. Plants were grown in a greenhouse under long days as described by Braun et al. ([2012]).
(§2) The compounds to be tested were applied directly to the axillary bud with a micropipette as 10 μL of a solution containing 0.1% of acetone with 2% of polyethylene glycol 1,450, 50% of ethanol, and 0.4% of DMSO. The control 0 is the treatment with 0.1% of DMSO without compound. A total of 24 plants were sown per treatment in trays (2 repetitions of 12 plants). The treatment was done 8 days after sowing, on the axillary bud at node 3. The branches at nodes 1–2 were removed to encourage the outgrowth of axillary buds at nodes above. Nodes were numbered acropetally from the first scale leaf as node 1 and cotyledonary node as node 0. Bud growth at node 3 was measured 10 days after treatment. Plants with damaged main shoot apex or showing a dead white treated bud were discarded from the analysis. The SL-deficient rms1-10 pea mutant was used for all experiments and WT Térèse as control. SL-perceived rms3-4 pea mutant was used to test that when bioactive, the analog acts via RMS3, and it was also used to check the putative toxicity of probes.

RMS3 protein [6] = molecular target: T1, RMS3 protein (Pisum sativum, UniProt A0A109QYD3); experiment: DSF binding assay on RMS3; details: 10 µM RMS3, probe 0-400 µM
T1 construct: GST; made in house
T1 sequence (A0A109QYD3 1-267): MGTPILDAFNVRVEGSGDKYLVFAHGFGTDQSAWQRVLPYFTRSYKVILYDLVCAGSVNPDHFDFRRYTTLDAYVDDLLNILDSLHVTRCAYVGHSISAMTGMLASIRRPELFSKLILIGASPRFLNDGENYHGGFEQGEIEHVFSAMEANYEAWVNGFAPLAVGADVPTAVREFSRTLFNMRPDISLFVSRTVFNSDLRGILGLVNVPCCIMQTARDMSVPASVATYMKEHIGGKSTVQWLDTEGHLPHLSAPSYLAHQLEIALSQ
Excerpt: To search for a destabilization effect, which characterizes bioactive SL analogs with SL receptors, we performed DSF binding assay with our novel probes on RMS3 protein.
DSF assay with SL profluorescent probes. The melting temperature

RMS3 protein [7] = molecular target: T1, RMS3 protein; experiment: Enzymatic assay with profluorescent probes, RMS3; assay type: biochemical; details: probe 10 μM, RMS3 400 nM, 25°C, result in words
[8] = test system: rms1-10 pea mutant plants; experiment: Pea shoot-branching assay by vascular supply, rms1-10; assay type: in vivo, Pisum sativum; details: rms1-10, 3,000 nM
Protocol: as §1
The compounds to be tested were applied by vascular supply (Muñoz et al., [2021]). The control was the treatment with 0.1% of DMSO in water. A total of 12 plants were sown per treatment in trays and were treated with probes under node 3 bud generally 10 days after sowing. Compounds in DMSO solution were diluted with water to 3,000 nM for a treatment with 0.1% (v/v) DMSO. The branches at nodes 1 and 2 were removed to encourage the outgrowth of axillary buds at the nodes above. Nodes were numbered acropetally from the first scale leaf as node 1 and cotyledonary node as node 0. Bud growth at nodes 3 and 4 was measured with digital calipers 8–10 days after treatment. Plants with damaged main shoot apex or with a dead white treated-bud were discarded from the analysis. The SL-deficient rms1-10 pea mutant was used for all experiments.

rms3-4 pea mutant plants = experiment: Pea shoot-branching assay by direct application on the bud, rms3-4; assay type: in vivo, Pisum sativum; details: 1,000 nM, rms3-4, 10 days after treatment
Protocol: as §1, §2

Row | Compound | Length of bud at node 3 /branch ([5]; 10 nM, mean per replicate) | Length of bud at node 3 /branch ([5]; 100 nM, mean per replicate) | Length of bud at node 3 /branch ([5]; 1,000 nM, mean per replicate) | Length of bud at node 3 /branch ([5]; 10,000 nM, mean per replicate) | Bioactivity on shoot branching inhibition (bud development) ([5]; rms1-10, direct application) | other results
1 | Cc1c(Cl)cccc1Nc1ccccc1C(=O)O [TFA, tolfenamic acid] |  |  |  |  |  | Bioactivity in pea (pea): no bioactivity
2 | CCOC(=O)c1ccccc1-c1c2ccc(=O)cc-2oc2cc(OC3C=CC(=O)O3)ccc12 (racemic) [(±)-dYLG, reference compound] |  |  |  |  |  | Biological activity on branching inhibition ([1]; ref Yao et al., 2021): no biological activity
3 | CC1=C[C@H](O/C=C2/C(=O)O[C@@H]3c4ccccc4C[C@H]23)OC1=O (racemic) [(±)-GR24, reference compound] |  |  |  |  |  | Cleavage by ShD14 (ShD14): could cleave; Activity on filament number (Ppccd8 mutant plants [2]): confirmed the previous activity; Effect on filament number (Ppccd8 mutant plants [3]): decrease in filament number; Bioactivity on number of rosette branches [4]: bioactive at both concentrations
4 | O=c1ccc2nc3ccc(O)cc3oc-2c1 [Resorufin, reference compound] | 12.53 mm | 16.50 mm | 14.90 mm |  |  | 
5 | CC1=C(C)C(Oc2ccc3ccc(=O)oc3c2)OC1=O (racemic) [(±)-GC155] | 5.97 mm and 16.85 mm and 8.43 mm | 3.68 mm and 4.11 mm and 2.71 mm and 5.98 mm and 1.83 mm | 1.98 mm and 1.45 mm and 1.92 mm and 1.96 mm and 2.38 mm and 2.32 mm | 2.06 mm | among the most bioactive molecules | Destabilization of RMS3 (DSF) (RMS3 protein [6]): able to destabilize RMS3; Cleavage kinetics by RMS3 (RMS3 protein [7]): two-phase kinetic
6 | CC1=CC(Oc2ccc3ccc(=O)oc3c2)OC1=O (racemic) [(±)-GC116] | 2.47 mm and 2.26 mm and 5.20 mm and 4.34 mm and 3.85 mm | 2.66 mm and 2.29 mm and 2.46 mm and 1.96 mm and 1.72 mm | 1.67 mm and 3.13 mm and 1.60 mm and 2.22 mm and 1.97 mm and 2.21 mm | 2.43 mm | inhibition of bud development | Destabilization of RMS3 (DSF) (RMS3 protein [6]): able to destabilize RMS3; Activity on filament number, one bioassay replication (Ppccd8 mutant plants [2]): no significant bioactivity; Bioactivity on number of rosette branches [4]: bioactive at 3 μM; Length of bud at node 3 /branch ([5]; 0.1 nM): 11.47 mm; Length of bud at node 3 /branch ([5]; 1 nM): 6.38 mm; Inhibition of bud development among probes with one methyl group on the D-ring ([5]; rms1-10, direct application, 10 nM): strongest inhibition of bud development
7 | CC1=C(C)C(Oc2ccc3nc4ccc(=O)cc-4oc3c2)OC1=O (racemic) [(±)-GC247, 7-[(3,4-Dimethyl-5-Oxo-2,5-Dihydrofuran-2-yl)Oxy]-3H-Phenoxazin-3-One] | 12.39 mm |  |  | 6.54 mm | inhibitory effect with statistical significance only at 10 μM | Cleavage kinetics by RMS3 (RMS3 protein [7]): two-phase kinetic
8 | Cc1cc(=O)oc2c(F)c(O)c(F)cc12 [DiFMU, 6,8-difluoro-7-hydroxy-4-methyl-2H-chromen-2-one, reference compound] |  |  | 14.76 mm |  |  | 
9 | CC1=CC(Oc2ccc3nc4ccc(=O)cc-4oc3c2)OC1=O (racemic) [(±)-GC93, 7-[(4-Methyl-5-Oxo-2,5-Dihydrofuran-2-yl)Oxy]-3H-Phenoxazin-3-One] | 17.73 mm |  |  | 3.89 mm | inhibitory effect with statistical significance only at 10 μM | Activity on filament number (Ppccd8 mutant plants [2]): strongest activity; Bioactivity on number of rosette branches [4]: not bioactive; Bioactivity by vascular supply compared to the coumarin derivatives series [8]: lower bioactivity
10 | 7-Hydroxycoumarin [reference compound] |  |  | 41.46 mm |  |  | 
11 | CC(=O)Oc1ccc2ccc(=O)oc2c1 [CoumarinAc, 7-Acetoxycoumarin] | 21.81 mm | 22.67 mm | 25.33 mm |  | no effect | Cleavage kinetics by RMS3 (RMS3 protein [7]): slower velocity than DiFMUAc
12 | COc1cc2ccc(=O)oc2cc1OC1OC(=O)C(C)=C1C (racemic) [(±)-GC380] | 6.65 mm | 8.99 mm and 11.66 mm and 5.90 mm | 2.33 mm and 3.47 mm and 2.08 mm | 2.15 mm | bioactive for the three tested concentrations | Length of bud at node 3 /branch (rms3-4 pea mutant plants): 23.62
13 | CC1=CC(OC=C2C(=O)OC3c4ccccc4CC23)OC1=O (single isomer, unassigned; (+)) [(+)-GR24] |  |  |  |  |  | Effect on filament number (Ppccd8 mutant plants [3]): decrease in filament number
14 | COc1cc2ccc(=O)oc2cc1OC1C=C(C)C(=O)O1 (racemic) [(±)-GC379] | 3.54 mm | 2.81 mm and 5.02 mm and 3.98 mm and 14.32 mm | 3.38 mm and 3.19 mm and 3.65 mm and 3.04 mm | 2.17 mm | bioactive for the three tested concentrations | Destabilization of RMS3 (DSF) (RMS3 protein [6]): able to destabilize RMS3; Length of bud at node 3 /branch (rms3-4 pea mutant plants): 26.30
15 | Cc1cc(=O)oc2c(F)c(OC3C=CC(=O)O3)c(F)cc12 (racemic) [(±)-GC486] | 24.70 mm | 22.10 mm | 23.14 mm |  | no biological activity | Length of bud at node 3 /branch ([1]; 1,000 nM): 9.26 mm; Length of bud at node 3 /branch ([1]; 5,000 nM): 17.41 mm; Activity on filament number, one bioassay replication (Ppccd8 mutant plants [2]): slight opposite effect; Cleavage kinetics by RMS3 (RMS3 protein [7]): Michaelian kinetics
16 | O=C(N1CCc2ccccc21)n1ccnn1 [KK094] |  |  |  |  |  | Bioactivity in pea (pea): no bioactivity
